{
  "source": "ChEMBL document CHEMBL1201862",
  "about": "“PubChem BioAssay data set” (2004)",
  "key": {"[1]": {"biological_target": "5-hydroxytryptamine receptor 2A (Mus musculus, UniProt P35363)", "sequence (P35363 whole entry)": "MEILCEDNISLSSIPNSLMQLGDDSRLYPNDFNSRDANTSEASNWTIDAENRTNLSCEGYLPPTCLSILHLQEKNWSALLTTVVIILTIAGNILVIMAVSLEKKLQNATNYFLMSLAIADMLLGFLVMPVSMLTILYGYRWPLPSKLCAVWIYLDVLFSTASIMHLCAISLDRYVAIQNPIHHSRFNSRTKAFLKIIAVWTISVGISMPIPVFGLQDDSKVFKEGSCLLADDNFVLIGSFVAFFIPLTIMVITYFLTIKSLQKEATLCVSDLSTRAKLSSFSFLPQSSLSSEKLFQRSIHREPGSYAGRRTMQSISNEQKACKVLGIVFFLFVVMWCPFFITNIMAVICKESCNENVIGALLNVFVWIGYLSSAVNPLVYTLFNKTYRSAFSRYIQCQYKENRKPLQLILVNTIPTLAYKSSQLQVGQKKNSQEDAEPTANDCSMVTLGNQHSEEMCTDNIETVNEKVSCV", "assay_type": "functional, cell-based"}, "[2]": {"biological_target": "Mu-type opioid receptor (Homo sapiens, UniProt P35372)", "sequence (P35372 whole entry)": "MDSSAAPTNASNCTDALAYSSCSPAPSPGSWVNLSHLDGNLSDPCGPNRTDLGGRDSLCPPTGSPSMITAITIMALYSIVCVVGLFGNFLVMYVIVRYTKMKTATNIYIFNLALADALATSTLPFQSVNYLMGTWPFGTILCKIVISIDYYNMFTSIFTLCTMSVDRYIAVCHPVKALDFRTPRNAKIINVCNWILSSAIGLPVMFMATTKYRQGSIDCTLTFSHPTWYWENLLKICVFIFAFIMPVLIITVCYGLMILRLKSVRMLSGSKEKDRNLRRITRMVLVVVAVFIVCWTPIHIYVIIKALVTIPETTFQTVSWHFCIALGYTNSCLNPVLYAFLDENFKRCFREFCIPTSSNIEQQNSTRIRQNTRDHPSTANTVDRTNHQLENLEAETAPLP", "assay_type": "functional, cell-based"}, "[3]": {"biological_target": "T1, Heat shock factor protein 1 (Mus musculus, UniProt P38532)", "T1 sequence (P38532 whole entry)": "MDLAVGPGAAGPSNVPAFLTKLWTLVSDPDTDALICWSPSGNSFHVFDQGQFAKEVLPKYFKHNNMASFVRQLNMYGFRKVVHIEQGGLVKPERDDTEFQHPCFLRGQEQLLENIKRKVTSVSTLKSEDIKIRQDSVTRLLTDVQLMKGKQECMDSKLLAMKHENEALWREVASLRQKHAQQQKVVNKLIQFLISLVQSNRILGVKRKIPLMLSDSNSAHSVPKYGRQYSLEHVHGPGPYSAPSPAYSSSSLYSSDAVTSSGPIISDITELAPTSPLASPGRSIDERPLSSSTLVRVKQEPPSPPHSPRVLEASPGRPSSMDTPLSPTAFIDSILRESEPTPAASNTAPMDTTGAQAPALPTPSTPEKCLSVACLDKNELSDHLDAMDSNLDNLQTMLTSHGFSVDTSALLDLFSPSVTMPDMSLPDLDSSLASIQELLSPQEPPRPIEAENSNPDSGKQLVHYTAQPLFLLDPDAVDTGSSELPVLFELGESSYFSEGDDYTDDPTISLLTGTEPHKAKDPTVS", "assay": "decrease of HSF1-responsive luciferase luminescence – cell-based, NIH3T3, dose retest, confirmation (AID 2382);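 also: NIH3T3 fibroblasts with HSF1-driven luciferase reporter stressed by proteasome inhibitor MG132; luminescence from HSF1-driven luciferase expression after 8 hours of MG132 stress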", "assay_type": "functional"}, "[4]": {"assay": "general mammalian cell viability loss – activator set, cherry-pick, cytotoxicity control for miR-122 modulator project, dose response (AID 720690);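 also: HEK293T human cells scored for general mammalian cytotoxicity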", "assay_type": "functional, cell-based"}, "[5]": {"assay": "activation of miR-122 Renilla sensor silencing – cell-based, Huh7 psiCHECK-miR122, Renilla luciferase, cherry-picked, dose response (AID 651956);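 also: huh7 hepatoma cells stably carrying a psiCHECK-2 miR-122 sensor plasmid; renilla luciferase signal reporting endogenous miR-122 activity after 48 h compound exposure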", "assay_type": "functional"}, "[6]": {"assay": "Dd2 parasite growth inhibition in erythrocytes – SYBR Green, dry powder samples, set 9, dose response (AID 1159568)", "assay_type": "functional, cell-based"}, "[7]": {"assay": "blockers of HIV-1 ZM109 envelope-driven cell-cell fusion – HeLa effector, CEM target cells, luciferase, cherry-pick, dose response (AID 652058)", "assay_type": "functional, cell-based"}, "[8]": {"assay": "viability loss in CEM21 cells – cell-based, CellTiter-Glo luminescence, cherry-picked, cytotoxicity control for viral fusion inhibitor project, dose response (AID 652042);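 also: potency for signal decrease meaning cytotoxicity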", "assay_type": "functional"}, "[9]": {"assay": "blockers of HIV-1 envelope-mediated cell-cell fusion – cherry-pick, dose response (AID 652057)", "assay_type": "functional, cell-based"}, "[10]": {"assay": "HIV-1 AD8 envelope cell-cell fusion blockers – cherry-pick, dose response (AID 652062);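 also: luciferase signal from cell-cell fusion driven by HIV-1 clade B AD8 Env; potency is for inhibitors of fusion seen as a drop in luminescence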", "assay_type": "functional, cell-based"}, "[11]": {"biological_target": "Endoplasmic reticulum aminopeptidase 1 (Homo sapiens, UniProt Q9NZ08)", "sequence (Q9NZ08 whole entry)": "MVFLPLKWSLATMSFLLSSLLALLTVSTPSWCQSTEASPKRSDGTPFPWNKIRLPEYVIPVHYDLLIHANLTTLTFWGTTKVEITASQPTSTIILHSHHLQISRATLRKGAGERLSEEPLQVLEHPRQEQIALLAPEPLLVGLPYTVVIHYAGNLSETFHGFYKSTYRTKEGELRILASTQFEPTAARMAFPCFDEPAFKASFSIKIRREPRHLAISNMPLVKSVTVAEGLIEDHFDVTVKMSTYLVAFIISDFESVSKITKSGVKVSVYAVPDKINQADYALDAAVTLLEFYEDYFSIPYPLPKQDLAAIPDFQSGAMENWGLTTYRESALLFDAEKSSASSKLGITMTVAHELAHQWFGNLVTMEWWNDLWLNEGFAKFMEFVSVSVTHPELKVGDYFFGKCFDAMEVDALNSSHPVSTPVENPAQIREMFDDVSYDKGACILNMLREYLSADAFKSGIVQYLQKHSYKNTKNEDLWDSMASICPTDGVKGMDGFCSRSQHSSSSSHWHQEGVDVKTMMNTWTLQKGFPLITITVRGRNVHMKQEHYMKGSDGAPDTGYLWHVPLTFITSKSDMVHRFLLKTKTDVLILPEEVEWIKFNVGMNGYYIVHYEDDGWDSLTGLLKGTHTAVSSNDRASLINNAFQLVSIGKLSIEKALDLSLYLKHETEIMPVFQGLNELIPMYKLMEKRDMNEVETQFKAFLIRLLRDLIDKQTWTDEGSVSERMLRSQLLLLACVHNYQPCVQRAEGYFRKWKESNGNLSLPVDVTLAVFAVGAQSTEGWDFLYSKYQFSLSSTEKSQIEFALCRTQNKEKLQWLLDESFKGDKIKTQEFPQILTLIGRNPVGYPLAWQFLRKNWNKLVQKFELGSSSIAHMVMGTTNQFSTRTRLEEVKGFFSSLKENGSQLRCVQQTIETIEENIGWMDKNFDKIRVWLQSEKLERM", "assay": "inhibition of human ERAP1 enzyme activity – biochemical, cherry-pick, set 2, plate reader, dose response (AID 743314)"}, "[12]": {"biological_target": "T2, Low molecular weight phosphotyrosine protein phosphatase (Homo sapiens, UniProt P24666)", "T2 sequence (P24666 whole entry)": "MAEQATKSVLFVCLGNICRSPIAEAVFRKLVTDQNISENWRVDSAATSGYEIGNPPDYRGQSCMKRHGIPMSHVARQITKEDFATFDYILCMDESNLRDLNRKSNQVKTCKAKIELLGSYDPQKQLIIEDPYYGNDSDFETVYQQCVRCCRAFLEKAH", "assay": "inhibition of human LMPTP enzyme activity – biochemical, absorbance, pNPP substrate, LMPTP-A isoform, set 2, orthogonal assay, dose response (AID 743308)", "assay_type": "functional"}, "[13]": {"biological_target": "T2, Low molecular weight phosphotyrosine protein phosphatase", "assay": "inhibition of LMPTP-A enzymatic activity – biochemical, OMFP substrate, fluorescence intensity, set 2, dose response (AID 743307)", "assay_type": "functional"}, "[14]": {"biological_target": "RNA-editing ligase 1, mitochondrial (Trypanosoma brucei brucei, UniProt P86926)", "sequence (P86926 whole entry)": "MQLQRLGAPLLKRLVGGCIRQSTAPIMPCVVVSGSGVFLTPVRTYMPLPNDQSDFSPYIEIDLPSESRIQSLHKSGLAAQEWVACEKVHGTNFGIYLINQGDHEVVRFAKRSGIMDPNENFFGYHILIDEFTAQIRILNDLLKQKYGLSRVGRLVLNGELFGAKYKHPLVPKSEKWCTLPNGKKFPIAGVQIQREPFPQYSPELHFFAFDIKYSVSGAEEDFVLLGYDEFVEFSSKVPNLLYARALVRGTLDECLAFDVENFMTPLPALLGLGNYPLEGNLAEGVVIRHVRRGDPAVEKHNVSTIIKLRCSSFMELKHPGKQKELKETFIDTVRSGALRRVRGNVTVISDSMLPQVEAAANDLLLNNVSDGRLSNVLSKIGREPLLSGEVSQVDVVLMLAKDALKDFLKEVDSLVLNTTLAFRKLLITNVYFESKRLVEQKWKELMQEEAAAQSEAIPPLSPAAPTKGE", "assay": "inhibition of trypanosome RNA editing ligase – biochemical, fluorescence, Trypanosoma brucei, dose response (AID 1117295)", "assay_type": "functional"}, "[15]": {"assay": "cells", "assay_type": "functional, cell-based", "conditions": "HEK-CNG"}, "[16]": {"biological_target": "Galanin receptor type 3 (Homo sapiens, UniProt O60755)", "sequence (O60755 whole entry)": "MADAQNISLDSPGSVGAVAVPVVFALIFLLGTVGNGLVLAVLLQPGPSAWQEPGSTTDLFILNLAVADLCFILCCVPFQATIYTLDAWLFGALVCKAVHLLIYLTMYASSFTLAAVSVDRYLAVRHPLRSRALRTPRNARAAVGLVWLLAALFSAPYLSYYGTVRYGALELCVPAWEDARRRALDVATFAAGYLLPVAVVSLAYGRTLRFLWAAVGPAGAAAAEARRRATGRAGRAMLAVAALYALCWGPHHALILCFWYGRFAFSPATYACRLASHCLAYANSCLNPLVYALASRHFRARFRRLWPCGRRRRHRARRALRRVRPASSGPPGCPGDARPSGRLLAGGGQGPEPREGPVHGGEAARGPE", "assay": "Fluorescence-based cell-based primary high throughput dose response assay to identify antagonists of the Galanin Receptor 3 (GalR3).", "assay_type": "functional"}},
  "note": "Where a name gives a salt, the structure may show the parent alone. Active and inactive are the calls of the source.",
  "data": [
    {"smiles": "CN1CCc2c(sc(/N=C/c3cc(C(C)(C)C)ccc3O)c2C#N)C1", "values": [
      {"measurement": "EC50", "setting": "[1]", "value": "12.9 µM (inactive)"},
      {"measurement": "EC50", "setting": "[2]", "value": "92.6 µM (inactive)"},
      {"measurement": "EC50", "setting": "[3]", "value": "> 195 µM (not active)"}
    ]},
    {"smiles": "CN1C(=O)c2cc(NC(=O)c3ccc(C(F)(F)F)cc3)ccc2OC[C@H]2O[C@H](CC(=O)NCc3ccc4c(c3)OCO4)CC[C@@H]21", "values": [
      {"measurement": "AC50", "setting": "[4]", "value": "22 µM (active)"},
      {"measurement": "AC50", "setting": "[5]", "value": "8.04 µM (active)"},
      {"measurement": "AC50", "setting": "[6]", "value": "12.6 µM (active)"}
    ]},
    {"smiles": "C[C@@H]1CN([C@H](C)CO)S(=O)(=O)c2ccc(C3=CCCCC3)cc2O[C@@H]1CN(C)S(=O)(=O)c1ccc(F)cc1", "values": [
      {"measurement": "AC50", "setting": "[7]", "value": "12.1 µM (active)"},
      {"measurement": "AC50", "setting": "[8]", "value": "32.5 µM (active)"},
      {"measurement": "AC50", "setting": "[9]", "value": "8.56 µM (active)"},
      {"measurement": "AC50", "setting": "[10]", "value": "7.76 µM (active)"}
    ]},
    {"smiles": "COC(=O)[C@H]1[C@H](CO)[C@H]2Cn3c(ccc(/C=C/c4ccccc4)c3=O)[C@@H]1N2C(=O)C1CCC1", "values": [
      {"measurement": "AC50", "setting": "[11]", "value": "4.93 µM (active)"}
    ]},
    {"smiles": "Clc1ccc(-c2cc(NCCCN3CCCCC3)c3ccccc3n2)cc1", "values": [
      {"measurement": "IC50", "setting": "[12]", "value": "2.88 µM (active)"},
      {"measurement": "IC50", "setting": "[13]", "value": "1.54 µM (active)"}
    ]},
    {"smiles": "O=C(O)C[C@H]1CC[C@@H]2[C@H](COC[C@@H](O)CN2S(=O)(=O)c2ccc(Oc3ccccc3)cc2)O1", "values": [
      {"measurement": "AC50", "setting": "[6]", "value": "31.1 µM (active)"}
    ]},
    {"smiles": "COC(=O)C1=C(C)N(Cc2cccc(C(F)(F)F)c2)C(NCc2ccccc2C(F)(F)F)=NC1c1ccccc1C(F)(F)F", "note": "(stereo unspecified)", "values": [
      {"measurement": "IC50", "setting": "[14]", "value": "> 96.6 µM (inactive)"}
    ]},
    {"smiles": "c1ccc(-c2nc(N3CCCCC3)c3ccccc3n2)cc1", "values": [
      {"measurement": "IC50", "setting": "[12]", "value": "> 80 µM (inactive)"},
      {"measurement": "IC50", "setting": "[13]", "value": "> 80 µM (inactive)"}
    ]},
    {"smiles": "COc1c2c(cc3c1OCO3)CCN(C)C2", "note": "[HYDROCOTARNINE HYDROBROMIDE]", "values": [
      {"measurement": "EC50", "setting": "[1]", "value": "76 µM (inactive)"},
      {"measurement": "EC50", "setting": "[2]", "value": "92.4 µM (inactive)"}
    ]},
    {"smiles": "OCc1cc(C(O)CNCCCCCCOCCCCc2ccccc2)ccc1O", "note": "(stereo unspecified) [SALMETEROL XINAFOATE]", "values": [
      {"measurement": "EC50", "setting": "[15]", "value": "> 29.9 µM (inactive)"},
      {"measurement": "IC50", "setting": "[16]", "value": "> 29.9 µM (inactive)"}
    ]}
  ]
}
